31 compounds from patent US9593110B2, “Neprilysin inhibitors” (Theravence Biopharma R&D IP, LLC, priority 2014, dated 2017) can be followed below.

The structures appear in SMILES notation.

The target of the assay is human NEP (Homo sapiens (Human), UniProt P08473). The experiment in a line: In vitro enzyme inhibition assay at human NEP. As to conditions: recombinant human NEP, fluorogenic peptide substrate, 37° C.; for Ki: pKi.
Chain of human NEP (P08473 52-750): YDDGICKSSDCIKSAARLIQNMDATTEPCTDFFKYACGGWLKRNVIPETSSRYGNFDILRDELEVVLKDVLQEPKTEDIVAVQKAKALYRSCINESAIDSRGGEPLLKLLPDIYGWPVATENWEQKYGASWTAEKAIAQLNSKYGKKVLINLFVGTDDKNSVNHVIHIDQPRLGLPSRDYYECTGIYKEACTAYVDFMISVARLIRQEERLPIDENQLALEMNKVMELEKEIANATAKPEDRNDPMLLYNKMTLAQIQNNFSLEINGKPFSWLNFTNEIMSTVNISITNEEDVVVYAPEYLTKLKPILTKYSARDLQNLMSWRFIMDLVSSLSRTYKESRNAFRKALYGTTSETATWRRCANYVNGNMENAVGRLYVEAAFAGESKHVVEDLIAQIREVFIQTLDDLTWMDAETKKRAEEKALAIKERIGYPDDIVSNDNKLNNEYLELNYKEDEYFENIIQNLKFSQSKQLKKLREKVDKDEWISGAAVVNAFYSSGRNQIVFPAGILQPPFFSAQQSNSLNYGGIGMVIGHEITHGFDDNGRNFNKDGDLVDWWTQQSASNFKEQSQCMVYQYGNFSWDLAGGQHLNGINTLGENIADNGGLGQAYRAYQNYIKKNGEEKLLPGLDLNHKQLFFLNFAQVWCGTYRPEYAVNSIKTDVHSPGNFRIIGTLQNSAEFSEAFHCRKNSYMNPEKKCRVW

Procedure: The inhibitory activities of compounds at human and rat neprilysin (EC 3.4.24.11; NEP) and human angiotensin converting enzyme (ACE) were determined using in vitro assays as described below.
The assays were performed in 384-well white opaque plates at 37° C. using the fluorogenic peptide substrates at a concentration of 10 μM in Assay Buffer (NEP: 50 mM HEPES, pH 7.5, 100 mM NaCl, 0.01% polyethylene glycol sorbitan monolaurate (Tween-20), 10 μM ZnSO4; ACE: 50 mM HEPES, pH 7.5, 100 mM NaCl, 0.01% Tween-20, 1 μM ZnSO4).
Test compounds were assayed over the range of concentrations from 10 μM to 20 pM. Test compounds were added to the enzymes and incubated for 30 minute at 37° C. prior to initiating the reaction by the addition of substrate.
Plates were read on a fluorometer with excitation and emission wavelengths set to 320 nm and 405 nm, respectively Inhibition constants were obtained by nonlinear regression of the data using the equation (GraphPad Software, Inc., San Diego, Calif.): v=v0/[1+(I/K′)] where v is the reaction rate, v0 is the uninhibited reaction rate, I is the inhibitor concentration and K′ is the apparent inhibition constant.

Consider `O=C(N[C@H](Cc1ccc(-c2cc(Cl)ccc2F)cc1)C[C@@H](CNCCO)C(=O)O)c1cnn[nH]1` (single isomer, unassigned) [Example 48a], for which the inhibitory constant (Ki) is not above 1 nM.

Regarding `O=C(N[C@H](Cc1ccc(-c2cc(Cl)ccc2F)cc1)C[C@@H](CNCCO)C(=O)O)c1cnn[nH]1` (single isomer, unassigned) [Example 48b], the Ki is 1.26 to 3.16 nM.

As for `COCCNC[C@H](C[C@@H](Cc1ccc(-c2cc(Cl)ccc2F)cc1)NC(=O)c1cnn[nH]1)C(=O)O` (single isomer, unassigned) [Example 49a], the Ki was not above 1 nM.

As to `Cc1cc(C(=O)NC(Cc2ccc(-c3cc(Cl)ccc3F)cc2)C[C@@H](CC#N)C(=O)O)sn1` (single isomer, unassigned) [Example 52-2], the Ki was in the range of 3.16 to 10 nM.

Take `O=C(N[C@H](Cc1ccc(-c2cc(Cl)ccc2F)cc1)CC(C(=O)O)c1cccnc1)c1cnn[nH]1` (single isomer, unassigned) [Example 77a]: the Ki was 3.16 to 10 nM.

As for `O=C(N[C@H](Cc1ccc(-c2ccccc2)cc1)CC(C(=O)O)C1CCOCC1)c1cnn[nH]1` (stereo in doubt) [Example 58, (S)-5-Biphenyl-4-yl-2-(tetrahydropyran-4-yl)-4-[(3H-[1,2,3]triazole-4-carbonyl)amino]pentanoic Acid], the Ki lay within 3.16 to 10 nM.

In the case of `O=C(N[C@H](Cc1ccc(-c2cc(Cl)ccc2F)cc1)CC(C(=O)O)C1CCNCC1)c1cnn[nH]1` (stereo in doubt) [Example 59, (S)-5-(5′-Chloro-2′-fluorobiphenyl-4-yl)-2-piperidin-4-yl-4-[(3H-[1,2,3]triazole-4-carbonyl)amino]pentanoic Acid], the Ki is not above 1 nM.

`CC(=O)N1CCC(C(C[C@@H](Cc2ccc(-c3ccccc3)cc2)NC(=O)c2cnn[nH]2)C(=O)O)CC1` (stereo in doubt) [Example 60, (S)-2-(1-Acetylpiperidin-4-yl)-5-biphenyl-4-yl-4-[(3H-[1,2,3]triazole-4-carbonyl)amino]pentanoic Acid]: the inhibition constant Ki fell in the range of 3.16 to 10 nM.

Regarding `O=C(N[C@H](Cc1ccc(-c2cc(Cl)ccc2F)cc1)CC(C(=O)O)c1ccccn1)c1cnn[nH]1` (stereo in doubt) [Example 76, (S)-5-(5′-Chloro-2′-fluorobiphenyl-4-yl)-2-pyridin-2-yl-4-[(3H-[1,2,3]triazole-4-carbonyl)amino]pentanoic Acid], the Ki lay within 12.6 to 31.6 nM.

Take `O=C(N[C@H](Cc1ccc(-c2cc(Cl)ccc2F)cc1)CC(C(=O)O)c1cccs1)c1cnn[nH]1` (stereo in doubt) [Example 78, (S)-5-(5′-Chloro-2′-fluorobiphenyl-4-yl)-2-thiophen-2-yl-4-[(3H-[1,2,3]triazole-4-carbonyl)amino]pentanoic Acid]: the Ki fell in the range of 1.26 to 3.16 nM.

As to `O=C(N[C@H](Cc1ccc(-c2cc(Cl)ccc2F)cc1)CC(C(=O)O)c1ccsc1)c1cnn[nH]1` (stereo in doubt) [Example 79, (S)-5-(5′-Chloro-2′-fluorobiphenyl-4-yl)-2-thiophen-3-yl-4-[(3H-[1,2,3]triazole-4-carbonyl)amino]pentanoic Acid], the Ki fell in the range of 1.26 to 3.16 nM.

Consider `COC[C@H](C[C@@H](Cc1ccc(-c2cc(Cl)ccc2F)cc1)NC(=O)c1[nH]nc(C2CC2)c1F)C(=O)O` [Example 2-3, (2S,4S)-5-(5′-Chloro-2′-fluorobiphenyl-4-yl)-4-[(5-cyclopropyl-4-fluoro-2H-pyrazole-3-carbonyl)amino]-2-methoxymethylpentanoic acid], for which the Ki fell in the range of 1.26 to 3.16 nM.

Turning to `COC[C@H](C[C@@H](Cc1ccc(-c2cc(Cl)ccc2F)cc1)NC(=O)c1cc(C(C)=O)n[nH]1)C(=O)O` [Example 2-4, (2S,4S)-4-[(5-Acetyl-2H-pyrazole-3-carbonyl)-amino]-5-(5′-chloro-2′-fluorobiphenyl-4-yl)-2-methoxymethylpentanoic acid], the pKi entry was “≧9.0”.

On to `COC[C@H](C[C@@H](Cc1ccc(-c2cc(Cl)ccc2F)cc1)NC(=O)c1cc(O)no1)C(=O)O` [Example 2-5, (2S,4S)-5-(5′-Chloro-2′-fluorobiphenyl-4-yl)-4-[(3-hydroxyisoxazole-5-carbonyl)-amino]-2-methoxymethylpentanoic acid], for which the pKi result is listed as “≧9.0”.

For the compound `COC[C@H](C[C@@H](Cc1ccc(-c2cc(Cl)ccc2F)cc1)NC(=O)c1ncco1)C(=O)O` [Example 2-7, (2S,4S)-5-(5′-Chloro-2′-fluorobiphenyl-4-yl)-2-methoxymethyl-4-[(oxazole-2-carbonyl)amino]pentanoic acid], the pKi entry is “≧9.0”.

Regarding `COC[C@H](C[C@@H](Cc1ccc(-c2cc(Cl)ccc2F)cc1)NC(=O)c1c[nH]c(=O)o1)C(=O)O` [Example 2-10, (2S,4S)-5-(5′-Chloro-2′-fluorobiphenyl-4-yl)-2-methoxymethyl-4-[(2-oxo-2,3-dihydro-oxazole-5-carbonyl)amino]pentanoic acid], the Ki is 1.26 to 3.16 nM.

As to `COC[C@H](C[C@@H](Cc1ccc(-c2cc(Cl)ccc2F)cc1)NC(=O)c1noc(=O)[nH]1)C(=O)O` [Example 2-11, (2S,4S)-5-(5′-Chloro-2′-fluorobiphenyl-4-yl)-2-methoxymethyl-4-[(5-oxo-4,5-dihydro-[1,2,4]oxadiazole-3-carbonyl)amino]pentanoic acid], the pKi result is listed as “≧9.0”.

Take `COC[C@H](C[C@@H](Cc1ccc(-c2cc(Cl)ccc2F)cc1)NC(=O)c1ccc(Cl)cn1)C(=O)O` [Example 2-12, (2S,4S)-5-(5′-Chloro-2′-fluorobiphenyl-4-yl)-4-[(5-chloro-pyridine-2-carbonyl)-amino]-2-methoxymethylpentanoic acid]: the pKi result is listed as “≧9.0”.

Turning to `COC[C@H](C[C@@H](Cc1ccc(-c2cc(Cl)ccc2F)cc1)NC(=O)c1ccc(C(F)(F)F)cn1)C(=O)O` [Example 2-14, (2S,4S)-5-(5′-Chloro-2′-fluorobiphenyl-4-yl)-2-methoxymethyl-4-[(5-trifluoromethylpyridine-2-carbonyl)amino]pentanoic acid], the pKi result is reported as “≧9.0”.

`COC[C@H](C[C@@H](Cc1ccc(-c2cccc(Cl)c2)cc1)NC(=O)c1n[nH]c(C(F)(F)F)n1)C(=O)O` [Example 4-1, (2S,4S)-5-(3′-Chlorobiphenyl-4-yl)-2-methoxymethyl-4-[(5-trifluoromethyl-1H-[1,2,4]triazole-3-carbonyl)amino]pentanoic acid]: the pKi result is reported as “≧9.0”.

For `COC[C@H](C[C@@H](Cc1ccc(-c2cccc(Cl)c2)cc1)NC(=O)c1cc(O)no1)C(=O)O` [Example 4-2, (2S,4S)-5-(3′-Chlorobiphenyl-4-yl)-4-[(3-hydroxy-isoxazole-5-carbonyl)amino]-2-methoxymethylpentanoic acid], the pKi entry is recorded as “≧9.0”.

Turning to `COC[C@H](C[C@@H](Cc1ccc(-c2cccc(Cl)c2)cc1)NC(=O)c1noc(=O)[nH]1)C(=O)O` [Example 4-3, (2S,4S)-5-(3′-Chlorobiphenyl-4-yl)-2-methoxymethyl-4-[(5-oxo-4,5-dihydro-[1,2,4]oxadiazole-3-carbonyl)amino]pentanoic acid], the pKi result is “≧9.0”.

As to `CCOC[C@H](C[C@@H](Cc1ccc(-c2cc(Cl)ccc2F)cc1)NC(=O)c1n[nH]c(C(F)(F)F)n1)C(=O)O` [Example 6, (2S,4S)-5-(5′-Chloro-2′-fluorobiphenyl-4-yl)-2-ethoxymethyl-4-[(5-trifluoromethyl-1H-[1,2,4]triazole-3-carbonyl)amino]pentanoic Acid], the pKi entry was “≧9.0”.

Take `CCOC[C@H](C[C@@H](Cc1ccc(-c2cc(Cl)ccc2F)cc1)NC(=O)c1cc(C(C)=O)n[nH]1)C(=O)O` [Example 7-3, (2S,4S)-4-[(5-Acetyl-2H-pyrazole-3-carbonyl)-amino]-5-(5′-chloro-2′-fluorobiphenyl-4-yl)-2-ethoxymethylpentanoic acid]: the pKi result was “≧9.0”.

On to `CCOC[C@H](C[C@@H](Cc1ccc(-c2cc(Cl)ccc2F)cc1)NC(=O)c1cc(CC)no1)C(=O)O` [Example 7-5, (2S,4S)-5-(5′-Chloro-2′-fluorobiphenyl-4-yl)-2-ethoxymethyl-4-[(3-ethylisoxazole-5-carbonyl)amino]pentanoic acid], for which the pKi entry is recorded as “≧9.0”.

Turning to `CCOC[C@H](C[C@@H](Cc1ccc(-c2cc(Cl)ccc2F)cc1)NC(=O)c1ncco1)C(=O)O` [Example 7-6, (2S,4S)-5-(5′-Chloro-2′-fluorobiphenyl-4-yl)-2-ethoxymethyl-4-[(oxazole-2-carbonyl)amino]pentanoic acid], the pKi entry was “≧9.0”.

For the compound `CCOC[C@H](C[C@@H](Cc1ccc(-c2cc(Cl)ccc2F)cc1)NC(=O)c1cocn1)C(=O)O` [Example 7-7, (2S,4S)-5-(5′-Chloro-2′-fluorobiphenyl-4-yl)-2-ethoxymethyl-4-[(oxazole-4-carbonyl)amino]pentanoic acid], the Ki lay within 1.26 to 3.16 nM.

In the case of `CCOC[C@H](C[C@@H](Cc1ccc(-c2cc(Cl)ccc2F)cc1)NC(=O)c1coc(C2CC2)n1)C(=O)O` [Example 7-8, (2S,4S)-5-(5′-Chloro-2′-fluorobiphenyl-4-yl)-4-[(2-cyclopropyloxazole-4-carbonyl)amino]-2-ethoxymethylpentanoic acid], the Ki lay within 1.26 to 3.16 nM.

Regarding `CCOC[C@H](C[C@@H](Cc1ccc(-c2cc(Cl)ccc2F)cc1)NC(=O)c1c[nH]c(=O)o1)C(=O)O` [Example 7-9, (2S,4S)-5-(5′-Chloro-2′-fluorobiphenyl-4-yl)-2-ethoxymethyl-4-[(2-oxo-2,3-dihydro-oxazole-5-carbonyl)amino]pentanoic acid], the pKi entry is recorded as “≧9.0”.

Turning to `CCOC[C@H](C[C@@H](Cc1ccc(-c2cc(Cl)ccc2F)cc1)NC(=O)c1noc(=O)[nH]1)C(=O)O` [Example 7-10, (2S,4S)-5-(5′-Chloro-2′-fluorobiphenyl-4-yl)-2-ethoxymethyl-4-[(5-oxo-4,5-dihydro-[1,2,4]oxadiazole-3-carbonyl)amino]pentanoic acid], the pKi result is given as “≧9.0”.

Regarding `CCOC[C@H](C[C@@H](Cc1ccc(-c2cc(Cl)ccc2F)cc1)NC(=O)c1ncccn1)C(=O)O` [Example 7-11, (2S,4S)-5-(5′-Chloro-2′-fluorobiphenyl-4-yl)-2-ethoxymethyl-4-[(pyrimidine-2-carbonyl)amino]pentanoic acid], the pKi entry is listed as “≧9.0”.

For orientation: Ki means a dissociation constant, usually derived from enzyme kinetics or from competition with a known ligand.
